Experiments:
Assay in all cases: KINOMEscan competition binding
Conditions in all cases: compound 10.0 µM
[1] = biological target: PIK3CG (human) (UniProt P48736)
[2] = biological target: CSNK2A2 (human) (UniProt P19784)
[3] = biological target: MINK1 (human) (UniProt Q8N4C8)
[4] = biological target: DAPK2 (human) (UniProt Q9UIK4)
[5] = biological target: ULK3 (human) (UniProt Q6PHR2)
[6] = biological target: HIPK1 (human) (UniProt Q86Z02)
[7] = biological target: PIM2 (human) (UniProt Q9P1W9)
[8] = biological target: PIM3 (human) (UniProt Q86V86)
[9] = test system: PIK3CA (human), P42336 [E545K]
[10] = biological target: PIM1 (human) (UniProt P11309)
[11] = biological target: EIF2AK2 (human) (UniProt P19525)
[12] = biological target: MAPK8 (human) (UniProt P45983)
[13] = biological target: MAPK14 (human) (UniProt Q16539)
[14] = biological target: AAK1 (human) (UniProt Q2M2I8)
[15] = biological target: ANKK1 (human) (UniProt Q8NFD2)
[16] = biological target: MAP2K6 (human) (UniProt P52564)
[17] = biological target: TNIK (human) (UniProt Q9UKE5)
[18] = biological target: PIK3CB (human) (UniProt P42338)
[19] = biological target: CSNK1G1 (human) (UniProt Q9HCP0)
[20] = biological target: TAOK3 (human) (UniProt Q9H2K8)
[21] = biological target: RPS6KA2 KD2 (human) (UniProt Q15349)
[22] = biological target: BMPR1B (human) (UniProt O00238)
[23] = biological target: TLK2 (human) (UniProt Q86UE8)
[24] = biological target: CAMK2G (human) (UniProt Q13555)
[25] = biological target: PAK7 (human) (UniProt Q9P286)
[26] = biological target: RPS6KA1 KD2 (human) (UniProt Q15418)
[27] = biological target: RPS6KA6 KD2 (human) (UniProt Q9UK32)
[28] = biological target: SRPK1 (human) (UniProt Q96SB4)
[29] = biological target: STK38L (human) (UniProt Q9Y2H1)
[30] = biological target: ULK1 (human) (UniProt O75385)
[31] = biological target: CDK16 (human) (UniProt Q00536)
[32] = biological target: CAMK2A (human) (UniProt Q9UQM7)
[33] = biological target: STK25 (human) (UniProt O00506)
[34] = biological target: MAPK10 (human) (UniProt P53779)
[35] = biological target: TLK1 (human) (UniProt Q9UKI8)
[36] = biological target: LATS2 (human) (UniProt Q9NRM7)
[37] = biological target: MAPK9 (human) (UniProt P45984)
[38] = biological target: GAK (human) (UniProt O14976)
[39] = biological target: ZAP70 (human) (UniProt P43403)
[40] = biological target: PLK4 (human) (UniProt O00444)
[41] = biological target: STK33 (human) (UniProt Q9BYT3)
[42] = biological target: DCLK1 (human) (UniProt O15075)
[43] = biological target: CHEK1 (human) (UniProt O14757)
[44] = biological target: RIOK2 (human) (UniProt Q9BVS4)
[45] = biological target: ULK2 (human) (UniProt Q8IYT8)
[46] = biological target: PLK1 (human) (UniProt P53350)
[47] = biological target: TTK (human) (UniProt P33981)
[48] = biological target: RPS6KA4 KD2 (human) (UniProt O75676)
[49] = test system: EIF2AK4 KD2 (human), Q9P2K8 [S808G]
[50] = biological target: PLK3 (human) (UniProt Q9H4B4)
[51] = biological target: DCLK2 (human) (UniProt Q8N568)
[52] = biological target: DAPK3 (human) (UniProt O43293)
[53] = biological target: PRKD2 (human) (UniProt Q9BZL6)
[54] = biological target: MAP2K3 (human) (UniProt P46734)
[55] = biological target: TSSK1B (human) (UniProt Q9BXA7)
[56] = biological target: PRKD1 (human) (UniProt Q15139)
[57] = biological target: CDK11A (human) (UniProt Q9UQ88)
[58] = biological target: AKT2 (human) (UniProt P31751)

ULK3 (human), sequence (Q6PHR2 whole entry, looked up): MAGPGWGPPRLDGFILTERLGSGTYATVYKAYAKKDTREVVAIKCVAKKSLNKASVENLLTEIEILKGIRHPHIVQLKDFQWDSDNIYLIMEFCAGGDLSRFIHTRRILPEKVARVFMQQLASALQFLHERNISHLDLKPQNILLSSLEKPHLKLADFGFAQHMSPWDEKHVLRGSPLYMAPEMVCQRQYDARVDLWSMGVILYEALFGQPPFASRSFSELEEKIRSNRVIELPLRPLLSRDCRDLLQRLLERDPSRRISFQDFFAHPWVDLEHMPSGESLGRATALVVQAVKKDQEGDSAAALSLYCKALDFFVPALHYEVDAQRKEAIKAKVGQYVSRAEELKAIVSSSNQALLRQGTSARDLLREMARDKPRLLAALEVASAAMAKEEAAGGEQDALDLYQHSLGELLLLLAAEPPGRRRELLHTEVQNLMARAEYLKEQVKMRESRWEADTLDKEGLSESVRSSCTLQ
PIM1 (human), sequence (P11309 whole entry, looked up): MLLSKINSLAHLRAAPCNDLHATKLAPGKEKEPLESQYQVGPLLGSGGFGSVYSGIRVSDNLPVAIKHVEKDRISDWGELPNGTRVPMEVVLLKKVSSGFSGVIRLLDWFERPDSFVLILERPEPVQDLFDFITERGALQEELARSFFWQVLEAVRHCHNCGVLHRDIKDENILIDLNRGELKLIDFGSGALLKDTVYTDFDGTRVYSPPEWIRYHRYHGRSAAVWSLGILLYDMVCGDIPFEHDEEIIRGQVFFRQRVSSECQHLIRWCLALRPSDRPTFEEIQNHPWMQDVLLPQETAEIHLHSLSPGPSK
RPS6KA1 KD2 (human), sequence (Q15418 whole entry, looked up): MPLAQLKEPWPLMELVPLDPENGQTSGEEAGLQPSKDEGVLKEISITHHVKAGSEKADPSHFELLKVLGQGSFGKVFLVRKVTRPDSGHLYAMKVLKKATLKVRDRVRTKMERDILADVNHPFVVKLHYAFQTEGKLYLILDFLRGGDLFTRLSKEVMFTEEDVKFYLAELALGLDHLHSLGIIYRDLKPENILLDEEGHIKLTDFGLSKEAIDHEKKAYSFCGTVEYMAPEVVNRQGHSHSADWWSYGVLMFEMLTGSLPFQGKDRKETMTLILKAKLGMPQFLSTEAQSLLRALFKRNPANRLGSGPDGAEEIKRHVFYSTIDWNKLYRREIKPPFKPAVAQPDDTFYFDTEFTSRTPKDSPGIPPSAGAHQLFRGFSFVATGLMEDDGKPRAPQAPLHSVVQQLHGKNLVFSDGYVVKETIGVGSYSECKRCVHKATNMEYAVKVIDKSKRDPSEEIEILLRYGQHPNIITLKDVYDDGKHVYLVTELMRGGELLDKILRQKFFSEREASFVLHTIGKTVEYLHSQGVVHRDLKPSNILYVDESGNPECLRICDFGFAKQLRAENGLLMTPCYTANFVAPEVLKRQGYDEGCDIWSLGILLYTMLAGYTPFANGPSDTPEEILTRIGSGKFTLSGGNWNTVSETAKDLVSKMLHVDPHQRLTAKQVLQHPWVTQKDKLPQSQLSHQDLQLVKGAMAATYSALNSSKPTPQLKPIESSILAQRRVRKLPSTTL
MINK1 (human), sequence (Q8N4C8 whole entry, looked up): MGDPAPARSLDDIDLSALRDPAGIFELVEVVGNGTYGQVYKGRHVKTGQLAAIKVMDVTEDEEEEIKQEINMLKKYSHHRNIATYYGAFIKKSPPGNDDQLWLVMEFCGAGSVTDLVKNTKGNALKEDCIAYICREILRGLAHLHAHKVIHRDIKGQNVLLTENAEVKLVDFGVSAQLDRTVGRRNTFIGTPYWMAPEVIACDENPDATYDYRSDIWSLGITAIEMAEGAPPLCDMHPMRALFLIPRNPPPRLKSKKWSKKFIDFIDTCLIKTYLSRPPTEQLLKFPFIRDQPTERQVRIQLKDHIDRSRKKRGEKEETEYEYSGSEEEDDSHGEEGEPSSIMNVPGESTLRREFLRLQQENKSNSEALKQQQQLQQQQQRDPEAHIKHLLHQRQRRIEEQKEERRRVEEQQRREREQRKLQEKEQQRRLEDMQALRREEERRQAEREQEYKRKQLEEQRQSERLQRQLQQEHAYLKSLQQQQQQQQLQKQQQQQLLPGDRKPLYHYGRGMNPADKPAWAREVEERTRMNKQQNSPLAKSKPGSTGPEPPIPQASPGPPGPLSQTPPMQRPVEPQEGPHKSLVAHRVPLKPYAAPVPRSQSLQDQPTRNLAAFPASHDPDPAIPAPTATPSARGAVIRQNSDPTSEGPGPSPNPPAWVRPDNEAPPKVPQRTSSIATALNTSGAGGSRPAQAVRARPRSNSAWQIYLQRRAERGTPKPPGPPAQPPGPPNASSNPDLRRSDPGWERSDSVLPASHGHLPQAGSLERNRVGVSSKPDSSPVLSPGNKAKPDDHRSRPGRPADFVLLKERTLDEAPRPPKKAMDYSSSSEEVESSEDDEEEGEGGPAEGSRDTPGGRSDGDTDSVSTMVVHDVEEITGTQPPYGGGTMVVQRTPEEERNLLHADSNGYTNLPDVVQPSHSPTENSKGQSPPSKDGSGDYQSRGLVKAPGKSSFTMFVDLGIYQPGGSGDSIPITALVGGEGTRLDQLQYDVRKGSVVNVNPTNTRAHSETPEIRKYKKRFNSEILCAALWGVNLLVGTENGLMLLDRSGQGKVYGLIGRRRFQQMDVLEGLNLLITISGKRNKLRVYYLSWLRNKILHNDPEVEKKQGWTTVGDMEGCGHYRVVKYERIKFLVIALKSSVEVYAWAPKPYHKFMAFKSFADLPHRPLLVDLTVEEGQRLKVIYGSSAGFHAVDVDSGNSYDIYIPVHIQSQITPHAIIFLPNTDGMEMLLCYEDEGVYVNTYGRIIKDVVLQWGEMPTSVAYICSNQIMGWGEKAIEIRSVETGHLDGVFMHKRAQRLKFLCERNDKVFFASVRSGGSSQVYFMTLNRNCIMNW
RPS6KA2 KD2 (human), sequence (Q15349 whole entry, looked up): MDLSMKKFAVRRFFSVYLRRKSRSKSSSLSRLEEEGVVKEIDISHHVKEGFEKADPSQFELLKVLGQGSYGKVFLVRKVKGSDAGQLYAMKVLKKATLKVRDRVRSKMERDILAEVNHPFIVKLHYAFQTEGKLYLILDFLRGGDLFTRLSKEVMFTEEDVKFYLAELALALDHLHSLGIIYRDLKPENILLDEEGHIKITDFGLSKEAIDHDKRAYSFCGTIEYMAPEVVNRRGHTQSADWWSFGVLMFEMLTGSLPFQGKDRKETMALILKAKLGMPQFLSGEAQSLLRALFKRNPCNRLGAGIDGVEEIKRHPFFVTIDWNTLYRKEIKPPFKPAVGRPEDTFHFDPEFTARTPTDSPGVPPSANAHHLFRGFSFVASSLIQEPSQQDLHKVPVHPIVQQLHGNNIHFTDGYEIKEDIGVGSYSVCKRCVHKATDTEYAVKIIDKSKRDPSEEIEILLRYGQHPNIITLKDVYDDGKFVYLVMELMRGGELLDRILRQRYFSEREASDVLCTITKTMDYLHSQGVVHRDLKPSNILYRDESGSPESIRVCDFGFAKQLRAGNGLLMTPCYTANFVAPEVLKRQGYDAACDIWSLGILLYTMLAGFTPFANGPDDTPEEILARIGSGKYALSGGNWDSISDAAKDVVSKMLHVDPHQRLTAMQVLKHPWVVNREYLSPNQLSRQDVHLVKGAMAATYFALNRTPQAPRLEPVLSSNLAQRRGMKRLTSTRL
RPS6KA6 KD2 (human), sequence (Q9UK32 whole entry, looked up): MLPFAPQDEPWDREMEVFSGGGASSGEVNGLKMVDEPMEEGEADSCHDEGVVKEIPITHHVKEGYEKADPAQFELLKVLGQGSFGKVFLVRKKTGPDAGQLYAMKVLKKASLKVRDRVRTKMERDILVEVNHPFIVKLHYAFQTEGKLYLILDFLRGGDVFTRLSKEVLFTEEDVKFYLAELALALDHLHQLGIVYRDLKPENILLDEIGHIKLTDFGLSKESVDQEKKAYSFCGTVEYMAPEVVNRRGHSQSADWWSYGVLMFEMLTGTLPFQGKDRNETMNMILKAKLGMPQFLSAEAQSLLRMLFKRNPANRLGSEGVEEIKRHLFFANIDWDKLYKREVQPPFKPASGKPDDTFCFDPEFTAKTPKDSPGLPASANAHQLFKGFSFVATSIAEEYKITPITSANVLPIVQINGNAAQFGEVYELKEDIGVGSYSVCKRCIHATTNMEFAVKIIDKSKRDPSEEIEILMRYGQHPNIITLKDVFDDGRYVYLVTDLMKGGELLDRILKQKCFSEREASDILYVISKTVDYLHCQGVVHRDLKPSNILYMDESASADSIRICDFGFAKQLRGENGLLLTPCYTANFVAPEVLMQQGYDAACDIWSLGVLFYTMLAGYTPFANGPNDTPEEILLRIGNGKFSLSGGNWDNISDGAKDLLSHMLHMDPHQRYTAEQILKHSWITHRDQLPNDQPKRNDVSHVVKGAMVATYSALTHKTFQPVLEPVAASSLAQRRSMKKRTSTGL
PIM2 (human), sequence (Q9P1W9 whole entry, looked up): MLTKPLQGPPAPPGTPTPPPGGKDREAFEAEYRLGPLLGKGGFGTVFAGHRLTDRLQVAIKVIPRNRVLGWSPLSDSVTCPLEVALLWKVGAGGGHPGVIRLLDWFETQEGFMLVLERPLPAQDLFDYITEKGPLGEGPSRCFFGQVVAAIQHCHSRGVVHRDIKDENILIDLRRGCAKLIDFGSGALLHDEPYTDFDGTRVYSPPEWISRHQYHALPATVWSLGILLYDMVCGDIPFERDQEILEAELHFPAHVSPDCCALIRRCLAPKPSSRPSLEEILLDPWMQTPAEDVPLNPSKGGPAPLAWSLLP
CSNK2A2 (human), sequence (P19784 whole entry, looked up): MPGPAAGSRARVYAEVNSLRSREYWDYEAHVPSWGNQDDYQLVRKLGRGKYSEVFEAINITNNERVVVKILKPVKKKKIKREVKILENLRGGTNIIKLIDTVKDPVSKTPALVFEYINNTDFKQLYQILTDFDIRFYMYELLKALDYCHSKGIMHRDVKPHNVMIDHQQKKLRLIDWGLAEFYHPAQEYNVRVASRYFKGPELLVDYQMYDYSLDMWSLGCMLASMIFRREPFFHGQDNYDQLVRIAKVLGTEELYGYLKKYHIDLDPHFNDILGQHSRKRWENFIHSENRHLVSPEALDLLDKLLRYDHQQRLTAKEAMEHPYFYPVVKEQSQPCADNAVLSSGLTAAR

Q: What does the source list for `NS(=O)(=O)c1ccc(-c2cccc(/C=C3\SC(=O)NC3=O)c2)cc1`?
A: kinase still bound, per cent of control [1]: 10%; kinase still bound, per cent of control [2]: 4.2%; kinase still bound, per cent of control [3]: 30%; kinase still bound, per cent of control [4]: 26%; kinase still bound, per cent of control [5]: 18%; kinase still bound, per cent of control [6]: 2.2%; kinase still bound, per cent of control [7]: 1.4%; kinase still bound, per cent of control [8]: 5.1%; kinase still bound, per cent of control [9]: 16%; kinase still bound, per cent of control [10]: 4.2%

Q: `NS(=O)(=O)c1ccc(-c2ccc(/C=C3\SC(=S)N(CC(=O)O)C3=O)o2)cc1` was tested. Which kinase still bound, per cent of control [11] did it give?
A: 32%

Q: What about the kinase still bound, per cent of control [12] of the same compound?
A: 22%

Q: And the kinase still bound, per cent of control [13]?
A: 20%

Q: And the kinase still bound, per cent of control [14]?
A: 34%

Q: And the kinase still bound, per cent of control [15]?
A: 31%

Q: And the kinase still bound, per cent of control [16]?
A: 32%

Q: What about the kinase still bound, per cent of control [3] of the same compound?
A: 23%

Q: What about the kinase still bound, per cent of control [17] of the same compound?
A: 32%

Q: And the kinase still bound, per cent of control [18]?
A: 29%

Q: And the kinase still bound, per cent of control [19]?
A: 27%

Q: What about the kinase still bound, per cent of control [20] of the same compound?
A: 34%

Q: What about the kinase still bound, per cent of control [5] of the same compound?
A: 26%

Q: What about the kinase still bound, per cent of control [21] of the same compound?
A: 22%

Q: And the kinase still bound, per cent of control [22]?
A: 27%

Q: What about the kinase still bound, per cent of control [23] of the same compound?
A: 25%

Q: What about the kinase still bound, per cent of control [24] of the same compound?
A: 33%

Q: What about the kinase still bound, per cent of control [25] of the same compound?
A: 22%

Q: What about the kinase still bound, per cent of control [26] of the same compound?
A: 29%

Q: And the kinase still bound, per cent of control [27]?
A: 32%

Q: And the kinase still bound, per cent of control [28]?
A: 22%

Q: What about the kinase still bound, per cent of control [29] of the same compound?
A: 19%

Q: And the kinase still bound, per cent of control [30]?
A: 29%

Q: And the kinase still bound, per cent of control [31]?
A: 0.35%

Q: And the kinase still bound, per cent of control [32]?
A: 34%

Q: What about the kinase still bound, per cent of control [33] of the same compound?
A: 34%

Q: And the kinase still bound, per cent of control [34]?
A: 30%

Q: And the kinase still bound, per cent of control [35]?
A: 22%

Q: And the kinase still bound, per cent of control [36]?
A: 25%

Q: What about the kinase still bound, per cent of control [37] of the same compound?
A: 21%

Q: What about the kinase still bound, per cent of control [38] of the same compound?
A: 20%

Q: What about the kinase still bound, per cent of control [10] of the same compound?
A: 33%

Q: What about the kinase still bound, per cent of control [39] of the same compound?
A: 21%

Q: What about the kinase still bound, per cent of control [40] of the same compound?
A: 0.35%

Q: How did the kinase still bound, per cent of control [41] turn out when `COc1cc(N2CCN(C)CC2)ccc1Nc1ncc2c(n1)N1CCC[C@H]1CC(=O)N2C` was run?
A: 5%

Q: And the kinase still bound, per cent of control [42]?
A: 0.75%

Q: What about the kinase still bound, per cent of control [43] of the same compound?
A: 16%

Q: What about the kinase still bound, per cent of control [44] of the same compound?
A: 0.2%

Q: And the kinase still bound, per cent of control [45]?
A: 19%

Q: What about the kinase still bound, per cent of control [46] of the same compound?
A: 2.4%

Q: And the kinase still bound, per cent of control [21]?
A: 9.4%

Q: What about the kinase still bound, per cent of control [47] of the same compound?
A: 2.6%

Q: What about the kinase still bound, per cent of control [26] of the same compound?
A: 28%

Q: What about the kinase still bound, per cent of control [27] of the same compound?
A: 8.6%

Q: And the kinase still bound, per cent of control [48]?
A: 33%

Q: What about the kinase still bound, per cent of control [49] of the same compound?
A: 18%

Q: And the kinase still bound, per cent of control [50]?
A: 3.6%

Q: What about the kinase still bound, per cent of control [51] of the same compound?
A: 3.6%

Q: What about the kinase still bound, per cent of control [52] of the same compound?
A: 28%

Q: And the kinase still bound, per cent of control [53]?
A: 2.6%

Q: And the kinase still bound, per cent of control [54]?
A: 0.4%

Q: What about the kinase still bound, per cent of control [55] of the same compound?
A: 23%

Q: And the kinase still bound, per cent of control [38]?
A: 6.2%

Q: What about the kinase still bound, per cent of control [56] of the same compound?
A: 15%

Q: What does the source list for `O=C1NC(=O)C(=Cc2ccc(-c3ccc(F)cc3O)o2)C(=O)N1`?
A: kinase still bound, per cent of control [57]: 31%; kinase still bound, per cent of control [58]: 17%
